Reference: patent US10669272B2, “Substituted naphthyridinone compounds useful as T cell activators” (BRISTOL-MYERS SQUIBB COMPANY, priority 2018, dated 2020)
Read-outs that look alike come from different tables or passages of the source.

Columns and labels:
naïve human CD8 T cells = assay: Human CD8 T cells IFN-γ assay; type: cell-based; details: normalized to 3 μM reference compound with anti-CD3 plus anti-CD28 as 100% activation, read-out: HuCD8 INFG Normalized EC50;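 further: Naïve human CD8 T cells stimulated with plate-bound anti-CD3 and soluble anti-CD28, IFN-γ in supernatant quantified by AlphaLISA and converted to pg/mL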
Experimental: Human CD8 T Cells IFN-γ Assay
Frozen naïve human CD8 T cells were thawed in AIM-V media, incubated for 2 h in 37° C., and counted. The 384-well tissue culture plate was coated overnight at 4° C. with 20 μL anti-human CD3 at 0.05 μg/mL in PBS, which was removed off the plate before 40,000 cells per 40 microliters CD8 T cells with 0.1 μg/mL soluble anti-human CD28 were added to each well. The compounds were transferred using an Echo liquid handler to the cell plate immediately after the cells were plated. After 20 h incubation at 37° C. incubator, 3 microliters per well supernatants transferred into a new 384-well white assay plate for cytokine measurement.
Interferon-γ (IFN-γ) was quantitated using the AlphLISA kit (Cat # AL217) as described by the manufacturer manual (Perkin Elmer). The counts from each well were converted to IFN-γ concentration (pg/mL).

[1] = tested on: OT-1 CD8+ T cells with SIINFEKL-loaded MC38 tumor cells; assay: Murine cytotoxic T lymphocyte assay (IFN-γ, OT-1 CTL with MC38 tumor cells); type: cell-based, mouse; details: read-out: msCTL INFg IC50
Procedure, shortened: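 IFN-γ was quantified by AlphaLISA in supernatants after 24 h co-culture at 37° C. Effectors were OT-1 CD8+ CTLs (5-day peptide/mIL2 expansion), exposed 1 h to DGK inhibitors before mixing 1:10 with MC38 tumor cells loaded 3 h with 1 μg/mL SIINFEKL peptide.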

human DGKζ = biological target: T1, human DGKζ (Homo sapiens, UniProt Q13574); assay: DGKζ LIPGLO assay (extruded liposome substrate), in vitro DGK inhibition; type: biochemical; details: liposome (LIPGLO) assay; read-out: DGKz LIPGLO IC50
T1 construct: TVMV protease cleavage site (C); Hexa-His (C); made in house; host or cells: Sf9 insect cells (baculovirus, Bac-to-Bac)

human DGKα = biological target: T2, human DGKα (Homo sapiens, UniProt P23743); assay: DGKα LIPGLO assay (extruded liposome substrate), in vitro DGK inhibition; type: biochemical; details: liposome (LIPGLO) assay; read-out: DGKa LIPGLO IC50
T2 construct: TVMV protease cleavage site (C); Hexa-His (C); made in house; host or cells: Sf9 insect cells (baculovirus, Bac-to-Bac)

Human venous whole blood = assay: Human whole blood IFN-γ assay; type: cell-based; details: human whole blood, normalized to 3 μM reference compound with anti-CD3 plus anti-CD28 as 100% activation, read-out: INFg Whole Blood Normalized Agonist EC50;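 further: blood from healthy donors exposed to compound for 1 h before stimulation with anti-CD3 and anti-CD28 at 1 µg/mL each, IFN-γ quantified in supernatant by AlphaLISA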
Experimental: Human Whole Blood IFN-γ Assay
Human venous whole blood (22.5 μL per well), obtained from healthy donors, was pre-treated with compounds for one hour at 37° C. in a humidified 95% air/5% CO2 incubator. The blood was stimulated with 2.5 μL anti-human CD3 and anti-CD28 mAb at a final concentration of 1 μg/mL each for 24 hours at 37° C. IFN-γ in the supernatants was measured using AlphLISA kit (Cat # AL217).

T1 sequence (Q13574 with tags, fused parts or gaps isoform Q13574-4): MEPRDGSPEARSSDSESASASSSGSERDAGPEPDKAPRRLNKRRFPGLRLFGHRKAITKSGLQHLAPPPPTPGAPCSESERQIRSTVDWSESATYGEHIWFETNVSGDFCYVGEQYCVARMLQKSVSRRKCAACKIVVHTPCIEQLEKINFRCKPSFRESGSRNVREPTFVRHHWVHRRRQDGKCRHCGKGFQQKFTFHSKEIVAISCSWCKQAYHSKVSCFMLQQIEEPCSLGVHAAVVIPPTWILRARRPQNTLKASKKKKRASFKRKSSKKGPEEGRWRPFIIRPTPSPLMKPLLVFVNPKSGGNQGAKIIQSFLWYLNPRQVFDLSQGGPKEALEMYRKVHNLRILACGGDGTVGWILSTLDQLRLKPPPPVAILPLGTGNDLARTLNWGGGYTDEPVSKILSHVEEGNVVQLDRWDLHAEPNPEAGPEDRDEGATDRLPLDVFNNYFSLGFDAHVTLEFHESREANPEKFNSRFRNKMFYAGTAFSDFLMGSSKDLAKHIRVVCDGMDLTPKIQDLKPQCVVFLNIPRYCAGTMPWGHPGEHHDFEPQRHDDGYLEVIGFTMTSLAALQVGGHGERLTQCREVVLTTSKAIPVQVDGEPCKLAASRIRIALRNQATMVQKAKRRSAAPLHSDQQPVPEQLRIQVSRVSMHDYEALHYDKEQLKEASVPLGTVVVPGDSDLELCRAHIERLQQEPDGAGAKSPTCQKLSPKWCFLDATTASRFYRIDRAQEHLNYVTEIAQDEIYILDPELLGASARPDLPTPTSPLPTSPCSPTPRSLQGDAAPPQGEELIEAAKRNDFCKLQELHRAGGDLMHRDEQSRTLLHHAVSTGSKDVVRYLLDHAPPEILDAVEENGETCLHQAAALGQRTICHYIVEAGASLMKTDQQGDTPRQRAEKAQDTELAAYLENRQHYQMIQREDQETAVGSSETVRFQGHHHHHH
T2 sequence (P23743 with tags, fused parts or gaps): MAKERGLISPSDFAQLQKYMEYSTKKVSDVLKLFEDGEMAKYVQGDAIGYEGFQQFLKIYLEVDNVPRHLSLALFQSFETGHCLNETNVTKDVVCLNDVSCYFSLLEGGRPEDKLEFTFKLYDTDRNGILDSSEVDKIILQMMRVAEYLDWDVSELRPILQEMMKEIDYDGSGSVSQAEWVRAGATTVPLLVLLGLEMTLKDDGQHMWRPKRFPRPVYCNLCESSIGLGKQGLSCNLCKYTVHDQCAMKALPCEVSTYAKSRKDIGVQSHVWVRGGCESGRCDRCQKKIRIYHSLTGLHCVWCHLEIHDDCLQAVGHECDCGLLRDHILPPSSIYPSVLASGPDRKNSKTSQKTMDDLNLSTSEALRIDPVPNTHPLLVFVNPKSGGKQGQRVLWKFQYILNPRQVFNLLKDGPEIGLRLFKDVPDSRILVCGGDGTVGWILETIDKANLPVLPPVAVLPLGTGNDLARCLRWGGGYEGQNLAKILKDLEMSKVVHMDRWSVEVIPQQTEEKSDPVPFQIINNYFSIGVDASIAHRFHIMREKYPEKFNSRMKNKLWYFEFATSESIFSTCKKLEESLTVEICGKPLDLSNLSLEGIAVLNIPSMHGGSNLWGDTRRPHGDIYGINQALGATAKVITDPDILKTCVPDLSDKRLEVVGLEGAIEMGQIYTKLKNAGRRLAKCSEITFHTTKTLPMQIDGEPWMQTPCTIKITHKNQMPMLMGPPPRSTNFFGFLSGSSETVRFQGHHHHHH

Row | Compound | EC50 (naïve human CD8 T cells; Homo sapiens, T-cell, 20 h) [nM] | IC50 ([1]; Mus musculus, MC-38) [nM] | IC50 (human DGKζ) [nM] | IC50 (human DGKα) [nM] | EC50 (Human venous whole blood; Homo sapiens, 24 h) [nM] | IC50 [1] [nM] | EC50 (naïve human CD8 T cells) [nM] | EC50 (Human venous whole blood) [nM] | EC50 (Human venous whole blood; Homo sapiens) [nM]
1 | CC[C@@H]1CN(c2c(Cl)c(=O)n(C)c3ccc(C#N)nc23)CCN1C(c1ccc(Cl)cc1)c1ccc(Cl)cc1 [Example 177, (R)-8-(4-(bis(4-chlorophenyl)methyl)-3-ethylpiperazin-1-yl)-7-chloro-5-methyl-6-oxo-5,6-dihydro-1,5-naphthyridine-2-carbonitrile] | 130 | 870 | 2700 | 5500 | 5000 |  |  |  | 
2 | C[C@@H]1CN(c2cc(=O)n(C)c3ccc(C#N)nc23)[C@@H](C)CN1C(c1ccc(Cl)cc1)c1ccc(Cl)cc1 [Example 25, 8-((2S,5R)-4-(bis(4-chlorophenyl)methyl)-2,5-dimethylpiperazin-1-yl)-5-methyl-6-oxo-5,6-dihydro-1,5-naphthyridine-2-carbonitrile] | 4.3 | 41 | 250 | 650 | 390 |  |  |  | 
3 | C[C@@H]1CN(c2c([N+](=O)[O-])c(=O)n(C)c3ccc(C#N)nc23)[C@@H](C)CN1C(c1ccc(F)cc1)c1ccc(F)cc1 [Example 161, 8-((2S,5R)-4-(bis(4-fluorophenyl)methyl)-2,5-dimethylpiperazin-1-yl)-5-methyl-7-nitro-6-oxo-5,6-dihydro-1,5-naphthyridine-2-carbonitrile] | 520 | 1500 | 29000 | 68000 | 8600 |  |  |  | 
4 | COC(=O)C1CN(c2c(Cl)c(=O)n(C)c3ccc(C#N)nc23)CCN1C(c1ccc(F)cc1)c1ccc(F)cc1 (single isomer, unassigned) [Example 76, methyl 1-(bis(4-fluorophenyl)methyl)-4-(3-chloro-6-cyano-1-methyl-2-oxo-1,2-dihydro-1,5-naphthyridin-4-yl)piperazine-2-carboxylate] | 10000 |  | 5200 | 3400 | 1600 | 280 |  |  | 
5 | C[C@@H]1CN(c2cc(=O)n(C)c3ccc(C#N)nc23)[C@@H](C)CN1C(c1ccc(F)cc1)c1ccc(Cl)cc1 (single isomer, unassigned) [Example 302] |  |  | 640 | 170 | 570 | 24 | 23 |  | 
6 | CC[C@@H]1CN(c2c(C#N)c(=O)n(C)c3ccc(C#N)nc23)CCN1C(c1ccc(F)cc1)c1ccc(F)cc1 [Example 173, (R)-8-(4-(bis(4-fluorophenyl)methyl)-3-ethylpiperazin-1-yl)-5-methyl-6-oxo-5,6-dihydro-1,5-naphthyridine-2,7-dicarbonitrile] | 25 | 45 | 1400 | 950 | 990 |  |  |  | 
7 | C[C@H]1CN(c2cc(=O)n(C)c3ccc(C#N)nc23)CCN1C(c1ccc(F)cc1)c1ccc(F)cc1 [Example 35, (S)-8-(4-(bis(4-fluorophenyl)methyl)-3-methylpiperazin-1-yl)-5-methyl-6-oxo-5,6-dihydro-1,5-naphthyridine-2-carbonitrile] | 61 | 1100 | 770 | 21000 | 2200 |  |  |  | 
8 | C[C@@H]1CN(c2c(Cl)c(=O)n(C)c3ccc(C#N)nc23)[C@@H](C)CN1C(c1ccc(Cl)cc1)c1ccc(Cl)cc1 [Example 26, 8-((2S,5R)-4-(bis(4-chlorophenyl)methyl)-2,5-dimethylpiperazin-1-yl)-7-chloro-5-methyl-6-oxo-5,6-dihydro-1,5-naphthyridine-2-carbonitrile] | 2300 | 10000 | 3000 | 24000 | 20000 |  |  |  | 
9 | C[C@@H]1CN(C(c2ccc(F)cc2)c2ccc(F)cc2)[C@H](C)CN1c1c(Cl)c(=O)n(C)c2ccc(C#N)nc12 [Example 132, 8-((2R,5R)-4-(bis(4-fluorophenyl)methyl)-2,5-dimethylpiperazin-1-yl)-7-chloro-5-methyl-6-oxo-5,6-dihydro-1,5-naphthyridine-2-carbonitrile] | 2100 | 7100 | 2700 | 51000 | 8300 |  |  |  | 
10 | C[C@@H]1CN(c2cc(=O)n(C)c3ccc(C#N)nc23)CCN1C(c1ccc(F)cc1)c1ccc(F)cc1 [Example 28, (R)-8-(4-(bis(4-fluorophenyl)methyl)-3-methylpiperazin-1-yl)-5-methyl-6-oxo-5,6-dihydro-1,5-naphthyridine-2-carbonitrile] | 38 | 570 | 2100 | 4600 | 5300 |  |  |  | 
11 | C[C@@H]1CN(c2c(F)c(=O)n(C)c3ccc(C#N)nc23)[C@@H](C)CN1C(c1ccc(F)cc1)c1ccc(F)cc1 [Example 157, 8-((2S,5R)-4-(bis(4-fluorophenyl)methyl)-2,5-dimethylpiperazin-1-yl)-7-fluoro-5-methyl-6-oxo-5,6-dihydro-1,5-naphthyridine-2-carbonitrile] | 72 | 78 | 380 | 350 | 530 |  |  |  | 
12 | C[C@@H]1CN(c2c(Cl)c(=O)n(C)c3ccc(C#N)nc23)[C@@H](C)CN1C(c1ccc(F)cc1)c1ccc(F)cc1 [Example 18, 8-((2S,5R)-4-(bis(4-fluorophenyl)methyl)-2,5-dimethylpiperazin-1-yl)-7-chloro-5-methyl-6-oxo-5,6-dihydro-1,5-naphthyridine-2-carbonitrile] | 250 | 10000 | 12000 | 800 | 20000 |  |  |  | 
13 | COC(=O)C1CN(c2cc(=O)n(C)c3ccc(C#N)nc23)CCN1C(c1ccc(F)cc1)c1ccc(F)cc1 (single isomer, unassigned) [Example 39, Methyl 1-(bis(4-fluorophenyl)methyl)-4-(6-cyano-1-methyl-2-oxo-1,2-dihydro-1,5-naphthyridin-4-yl)piperazine-2-carboxylate] |  |  | 9400 | 240000 |  | 1900 | 220 | 9700 | 
14 | C[C@@H]1CN(c2c(C#N)c(=O)n(C)c3ccc(C#N)nc23)CCN1C(c1ccc(F)cc1)c1ccc(F)cc1 [Example 32, (R)-8-(4-(bis(4-fluorophenyl)methyl)-3-methylpiperazin-1-yl)-5-methyl-6-oxo-5,6-dihydro-1,5-naphthyridine-2,7-dicarbonitrile] | 17 | 43 | 850 | 980 |  |  |  |  | 400
15 | CC[C@@H]1CN(c2cc(=O)n(C)c3ccc(C#N)nc23)CCN1C(c1ccc(Cl)cc1)c1ccc(Cl)cc1 [Example 180, (R)-8-(4-(bis(4-chlorophenyl)methyl)-3-ethylpiperazin-1-yl)-5-methyl-6-oxo-5,6-dihydro-1,5-naphthyridine-2-carbonitrile] | 70 | 400 | 1500 | 4100 | 830 |  |  |  | 
16 | C[C@@H]1CN(c2cc(=O)n(C)c3ccc(C#N)nc23)[C@@H](C)CN1C(c1ccc(F)cc1)c1ccc(C#N)cc1 (single isomer, unassigned) [Example 306] | 54 | 53 | 1300 | 470 | 530 |  |  |  | 
17 | C[C@@H]1CN(c2c(F)c(=O)n(C)c3ccc(C#N)nc23)CCN1C(c1ccc(F)cc1)c1ccc(F)cc1 [Example 30, (R)-8-(4-(bis(4-fluorophenyl)methyl)-3-methylpiperazin-1-yl)-7-fluoro-5-methyl-6-oxo-5,6-dihydro-1,5-naphthyridine-2-carbonitrile] | 430 | 15 | 430 | 500 | 1600 |  |  |  | 
18 | CC(C)[C@@H]1CN(c2cc(=O)n(C)c3ccc(C#N)nc23)CCN1C(c1ccc(F)cc1)c1ccc(F)cc1 [Example 168, (R)-8-(4-(bis(4-fluorophenyl)methyl)-3-isopropylpiperazin-1-yl)-5-methyl-6-oxo-5,6-dihydro-1,5-naphthyridine-2-carbonitrile] | 10000 | 510 | 240000 | 7500 | 10000 |  |  |  | 
19 | CC[C@@H]1CN(c2c(C#N)c(=O)n(C)c3ccc(C#N)nc23)CCN1C(c1ccc(Cl)cc1)c1ccc(Cl)cc1 [Example 179, (R)-8-(4-(bis(4-chlorophenyl)methyl)-3-ethylpiperazin-1-yl)-5-methyl-6-oxo-5,6-dihydro-1,5-naphthyridine-2,7-dicarbonitrile] | 52 | 49 | 880 | 880 | 1000 |  |  |  | 
20 | COc1cc(F)ccc1C(c1ccc(F)cc1)N1C[C@H](C)N(c2cc(=O)n(C)c3ccc(C#N)nc23)C[C@H]1C (single isomer, unassigned) [Example 108] |  |  | 130 | 3400 |  | 130 | 33 | 440 | 
